Reference: patent publication US9125913B2, “Bcl-2-selective apoptosis-inducing agents for the treatment of cancer and immune diseases” (AbbVie Inc., priority 2008, dated 2015)

Test system: GST-Bcl-2
Experiment: TR-FRET binding assay, Bcl-2
Conditions: TR-FRET Ki values
How it was run: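 Ki values come from Wang's competitive-binding equation applied to TR-FRET signal (excitation 340/35 nm; emission 520/525 nm F-Bak peptide, 495/510 nm Tb antibody). Protein, probe and antibody incubated with compound 3 h at room temperature; dilution series began at 50 μM as 2× stock in 10% DMSO.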

Row | Structure (SMILES) | Binding selectivity ratio (Bcl-XL Ki/Bcl-2 Ki)
1 | CC(C)(C)c1ccc(CN2CCN(c3ccc(C(=O)NS(=O)(=O)c4ccc(OCC5CCOCC5)c([N+](=O)[O-])c4)c(Oc4ccc5[nH]ccc5c4)c3)CC2)c(-c2ccc(Cl)cc2)c1 [EXAMPLE 342, 4-{4-[(5-tert-butyl-4′-chloro-1,1′-biphenyl-2-yl)methyl]piperazin-1-yl}-2-(1H-indol-5-yloxy)-N-{[3-nitro-4-(tetrahydro-2H-pyran-4-ylmethoxy)phenyl]sulfonyl}benzamide] | >25.6
2 | CC1(C)CCC(CN2CCN(c3ccc(C(=O)NS(=O)(=O)c4ccc(NC5CCN(C6Cc7ccccc7C6)CC5)c([N+](=O)[O-])c4)c(Oc4ccc5[nH]ccc5c4)c3)CC2)=C(c2ccc(Cl)cc2)C1 [EXAMPLE 228, 4-(4-{[2-(4-chlorophenyl)-4,4-dimethylcyclohex-1-en-1-yl]methyl}piperazin-1-yl)-N-[(4-{[1-(2,3-dihydro-1H-inden-2-yl)piperidin-4-yl]amino}-3-nitrophenyl)sulfonyl]-2-(1H-indol-5-yloxy)benzamide] | >141.4
3 | CC1(C)CCC(CN2CCN(c3ccc(C(=O)NS(=O)(=O)c4ccc(NCC5CCOCC5)c(S(=O)(=O)C(F)(F)F)c4)c(Oc4cccc5[nH]ccc45)c3)CC2)=C(c2ccc(Cl)cc2)C1 [EXAMPLE 303, 4-(4-{[2-(4-chlorophenyl)-4,4-dimethylcyclohex-1-en-1-yl]methyl}piperazin-1-yl)-2-(1H-indol-4-yloxy)-N-({4-[(tetrahydro-2H-pyran-4-ylmethyl)amino]-3-[(trifluoromethyl)sulfonyl]phenyl}sulfonyl)benzamide] | >445.9
4 | CN(C)CCCOc1ccc(-c2ccc(Cl)cc2)c(CN2CCN(c3ccc(C(=O)NS(=O)(=O)c4ccc(NCC5CCOCC5)c([N+](=O)[O-])c4)c(Oc4ccccc4)c3)CC2)c1 [Example 116, 4-[4-({4′-chloro-4-[3-(dimethylamino)propoxy]-1,1′-biphenyl-2-yl}methyl)piperazin-1-yl]-N-({3-nitro-4-[(tetrahydro-2H-pyran-4-ylmethyl)amino]phenyl}sulfonyl)-2-phenoxybenzamide] | 230.7
5 | CC1(C)CCC(CN2CCN(c3ccc(C(=O)NS(=O)(=O)c4ccc(CCC5OCCO5)c([N+](=O)[O-])c4)c(Oc4ccc5[nH]ccc5c4)c3)CC2)=C(c2ccc(Cl)cc2)C1 [EXAMPLE 278, 4-(4-{[2-(4-chlorophenyl)-4,4-dimethylcyclohex-1-en-1-yl]methyl}piperazin-1-yl)-N-({4-[2-(1,3-dioxolan-2-yl)ethyl]-3-nitrophenyl}sulfonyl)-2-(1H-indol-5-yloxy)benzamide] | >929.4
6 | CC(c1ccccc1-c1ccc(Cl)cc1)N1CCN(c2ccc(C(=O)NS(=O)(=O)c3ccc(NCC4CCOCC4)c([N+](=O)[O-])c3)c(Oc3cccc4[nH]ccc34)c2)CC1 (stereo not shown) [Example 175, 4-{4-[1-(4′-chloro-1,1′-biphenyl-2-yl)ethyl]piperazin-1-yl}-2-(1H-indol-4-yloxy)-N-({3-nitro-4-[(tetrahydro-2H-pyran-4-ylmethyl)amino]phenyl}sulfonyl)benzamide] | >6600
7 | O=C(NS(=O)(=O)c1ccc(NCCn2ccnn2)c([N+](=O)[O-])c1)c1ccc(N2CCN(Cc3ccccc3-c3ccc(Cl)cc3)CC2)cc1Oc1ccccc1 [Example 164, 4-{4-[(4′-chloro-1,1′-biphenyl-2-yl)methyl]piperazin-1-yl}-N-[(3-nitro-4-{[2-(1H-1,2,3-triazol-1-yl)ethyl]amino}phenyl)sulfonyl]-2-phenoxybenzamide] | 143.3
8 | CC1(C)CCC(CN2CCN(c3ccc(C(=O)NS(=O)(=O)c4ccc(NCC5CCOCC5)c([N+](=O)[O-])c4)c(Oc4cccc5[nH]ccc45)c3)CC2)=C(c2ccc(Cl)cc2)C1 [EXAMPLE 244, 4-(4-{[2-(4-chlorophenyl)-4,4-dimethylcyclohex-1-en-1-yl]methyl}piperazin-1-yl)-2-(1H-indol-4-yloxy)-N-({3-nitro-4-[(tetrahydro-2H-pyran-4-ylmethyl)amino]phenyl}sulfonyl)benzamide] | >4136.9
9 | COCCOCCNc1ccc(S(=O)(=O)NC(=O)c2ccc(N3CCN(CC4=C(c5ccc(Cl)cc5)CC(C)(C)CC4)CC3)cc2Oc2cccc3[nH]ccc23)cc1[N+](=O)[O-] [EXAMPLE 293, 4-(4-{[2-(4-chlorophenyl)-4,4-dimethylcyclohex-1-en-1-yl]methyl}piperazin-1-yl)-2-(1H-indol-4-yloxy)-N-[(4-{[2-(2-methoxyethoxy)ethyl]amino}-3-nitrophenyl)sulfonyl]benzamide] | 505.1
10 | O=C(NS(=O)(=O)c1ccc(NCC2CCOCC2)c(S(=O)(=O)C(F)(F)F)c1)c1ccc(N2CCN(Cc3ccccc3-c3ccc(Cl)cc3)CC2)cc1Oc1ccc2[nH]ccc2c1 [Example 62, 4-{4-[(4′-chloro-1,1′-biphenyl-2-yl)methyl]piperazin-1-yl}-2-(1H-indol-5-yloxy)-N-({4-[(tetrahydro-2H-pyran-4-ylmethyl)amino]-3-[(trifluoromethyl)sulfonyl]phenyl}sulfonyl)benzamide] | 162.4
11 | CC1(C)CCC(CN2CCN(c3ccc(C(=O)NS(=O)(=O)c4ccc(NCC5CCS(=O)(=O)CC5)c([N+](=O)[O-])c4)c(Oc4cccc5[nH]ccc45)c3)CC2)=C(c2ccc(Cl)cc2)C1 [EXAMPLE 301, 4-(4-{[2-(4-chlorophenyl)-4,4-dimethylcyclohex-1-en-1-yl]methyl}piperazin-1-yl)-N-[(4-{[(1,1-dioxidotetrahydro-2H-thiopyran-4-yl)methyl]amino}-3-nitrophenyl)sulfonyl]-2-(1H-indol-4-yloxy)benzamide] | >2268.0
12 | CC1(C)CCC(CN2CCN(c3ccc(C(=O)NS(=O)(=O)c4cnc(OCC5(F)CCOCC5)c(C#N)c4)c(Oc4ccc5[nH]ccc5c4)c3)CC2)=C(c2ccc(Cl)cc2)C1 [EXAMPLE 385, 4-(4-{[2-(4-chlorophenyl)-4,4-dimethylcyclohex-1-en-1-yl]methyl}piperazin-1-yl)-N-({5-cyano-6-[(4-fluorotetrahydro-2H-pyran-4-yl)methoxy]pyridin-3-yl}sulfonyl)-2-(1H-indol-5-yloxy)benzamide] | 2096.5
13 | O=C(NS(=O)(=O)c1ccc(NC2CCN(S(=O)(=O)c3ccccc3)CC2)c([N+](=O)[O-])c1)c1ccc(N2CCN(Cc3ccccc3-c3ccc(Cl)cc3)CC2)cc1Oc1ccccc1 [Example 157, 4-{4-[(4′-chloro-1,1′-biphenyl-2-yl)methyl]piperazin-1-yl}-N-[(3-nitro-4-{[1-(phenylsulfonyl)piperidin-4-yl]amino}phenyl)sulfonyl]-2-phenoxybenzamide] | >148.2
14 | CN(C)CCCNc1ccc(S(=O)(=O)NC(=O)c2ccc(N3CCN(Cc4ccccc4-c4ccc(Cl)cc4)CC3)cc2Oc2ccccc2)cc1C#N [Example 90, 4-{4-[(4′-chloro-1,1′-biphenyl-2-yl)methyl]piperazin-1-yl}-N-[(3-cyano-4-{[3-(dimethylamino)propyl]amino}phenyl)sulfonyl]-2-phenoxybenzamide] | 133
15 | CC1(C)CCC(CN2CCN(c3ccc(C(=O)NS(=O)(=O)c4ccc(NC5CCN(Cc6cscn6)CC5)c([N+](=O)[O-])c4)c(Oc4ccc5[nH]ccc5c4)c3)CC2)=C(c2ccc(Cl)cc2)C1 [EXAMPLE 231, 4-(4-{[2-(4-chlorophenyl)-4,4-dimethylcyclohex-1-en-1-yl]methyl}piperazin-1-yl)-2-(1H-indol-5-yloxy)-N-[(3-nitro-4-{[1-(1,3-thiazol-4-ylmethyl)piperidin-4-yl]amino}phenyl)sulfonyl]benzamide] | >718.8
16 | CC1(C)CCC(CN2CCN(c3ccc(C(=O)NS(=O)(=O)c4ccc(NC5(CO)CCOCC5)c([N+](=O)[O-])c4)c(Oc4ccc5[nH]ccc5c4)c3)CC2)=C(c2ccc(Cl)cc2)C1 [EXAMPLE 240, 4-(4-{[2-(4-chlorophenyl)-4,4-dimethylcyclohex-1-en-1-yl]methyl}piperazin-1-yl)-N-[(4-{[4-(hydroxymethyl)tetrahydro-2H-pyran-4-yl]amino}-3-nitrophenyl)sulfonyl]-2-(1H-indol-5-yloxy)benzamide] | >795.4
17 | CC1(C)CCC(CN2CCN(c3ccc(C(=O)NS(=O)(=O)c4ccc(NC5CCN(C6CCOCC6)CC5)c([N+](=O)[O-])c4)c(Oc4cccc5[nH]ncc45)c3)CC2)=C(c2ccc(Cl)cc2)C1 [EXAMPLE 401, 4-(4-{[2-(4-chlorophenyl)-4,4-dimethylcyclohex-1-en-1-yl]methyl}piperazin-1-yl)-2-(1H-indazol-4-yloxy)-N-({3-nitro-4-[(1-tetrahydro-2H-pyran-4-ylpiperidin-4-yl)amino]phenyl}sulfonyl)benzamide] | >162.14
18 | CC1(C)CCC(CN2CCN(c3ccc(C(=O)NS(=O)(=O)c4ccc(NN5CCCCC5)c([N+](=O)[O-])c4)c(Oc4cccc5[nH]ccc45)c3)CC2)=C(c2ccc(Cl)cc2)C1 [EXAMPLE 283, 4-(4-{[2-(4-chlorophenyl)-4,4-dimethylcyclohex-1-en-1-yl]methyl}piperazin-1-yl)-2-(1H-indol-4-yloxy)-N-{[3-nitro-4-(piperidin-1-ylamino)phenyl]sulfonyl}benzamide] | >13.9
19 | O=C(NS(=O)(=O)c1ccc(NCC2CCOCC2)c([N+](=O)[O-])c1)c1ccc(N2CCN(Cc3ccccc3-c3ccc(Cl)cc3)CC2)cc1Oc1cccnc1 [Example 79, 4-{4-[(4′-chloro-1,1′-biphenyl-2-yl)methyl]piperazin-1-yl}-N-({3-nitro-4-[(tetrahydro-2H-pyran-4-ylmethyl)amino]phenyl}sulfonyl)-2-(pyridin-3-yloxy)benzamide] | 47.4
